Laboratory results published in publication PMC13580833, “Investigation of Thiazolidine‐2,4‐Dione Derivatives as Acetylcholinesterase Inhibitors: Synthesis, In Vitro Biological Activities and In Silico Studies” (ChemistryOpen, 2025).

Assays:
BChE = BChE (Homo sapiens, UniProt P06276); assay: BChE inhibition assay (Ellman's method); type: biochemical
Protocol: The ChEs inhibitory activities based on Ellman's method were assessed using previously described methods.[[15b]] Acetylcholinesterase (electric eel, […]) inhibition assays were conducted with ATCI (10 mM) and DTNB (10 mM). The experiment required adding 50 μL of AChE in Tris‐HCl buffer (pH 8.0), 100 μL substrate, and 50 μL of the sample dissolved in DMSO (10 % in Tris‐HCl buffer) to the wells. For BChE inhibition, mixtures contained 30 μL of 10 mM DTNB, 5 μL of BChE, 30 μL of 10 mM BTChCl (10 mM), and 10 μL of samples.
All samples were dissolved in 10 % DMSO, and the experiment was performed in triplicate.

p‐Tau/Tau = assay: Western blot of p‐Tau/Tau in Aβ‐exposed PC12 cells; type: cell-based, Rattus norvegicus; settings: for Decrease of p‐Tau/Tau compared with the Aβ group: Aβ1‐42 100 μM
Protocol: (§1) PC12 cells were seeded in a 6‐well plate, treated CHT1 at concentrations of 5 and 8 μM for 24 hours, washed with cold PBS, and lysed with lysis buffer for 30 minutes on ice. After centrifugation at 12,000×g for 10 minutes at 4 °C, the lysates were transferred to new tubes. The Bradford assay was utilized to determine the protein concentration.[24] SDS–PAGE was used to separate the denatured proteins, which were subsequently transferred to PVDF membranes. The membranes were blocked with nonfat dry milk in PBS containing 0.1 % Tween‐20 (PBST) and then incubated overnight at 4 °C with primary antibodies against p‐Taul/Tau, HSP70, and β‐actin as a control. Subsequently, the membranes were exposed to a secondary antibody conjugated with horseradish peroxidase (HRP) for 2 hours at room temperature. Using the densitometric scanning technique in the ImageJ program, the density of the protein bands in the relative direction was determined.

HSP70 = assay: Western blot of HSP70 in Aβ‐exposed PC12 cells; type: cell-based, Rattus norvegicus; settings: for Decrease of HSP70 expression compared with the Aβ group: Aβ1‐42 100 μM
Protocol: as §1

[1] = Ferric reducing/antioxidant power (FRAP) assay; settings: ferrous ion equivalents per gram of test compound; triplicate
Protocol: The ferric reducing/antioxidant power (FRAP) assay was performed based on a previous study.[[15a]] […] A standard curve was drawn to analyze different concentrations of ferrous sulfate (0.1–1 mM). The analysis was conducted in triplicates and the value of antioxidant activity results were expressed in mmol ferrous ion equivalents per gram of test compounds (mmol Fe^2+/g).

PC12 cells [2] = assay: Growth of PC12 cells in response to treatments (Figure 5); type: cell-based, Rattus norvegicus; settings: CHT1 pretreatment 5 and 8 μM in the presence of Aβ, 24 hours
PC12 cells [3] = assay: MTT assay, Aβ1‐42‐induced toxicity in PC12 cells; type: cell-based, Rattus norvegicus; settings: 0.31–20 μM CHT1, 12, 24 and 48 h
Protocol: (§2) Rattus norvegicus pheochromocytoma PC12 cells (Pastor Institute, Iran) were cultured in Dulbecco's modified Eagle's medium (DMEM) supplemented with 10 % fetal bovine serum (FBS) and 1 % penicillin/streptomycin (Gibco) at 37 °C with 5 % CO2. PC12 cells were treated with different concentrations of CHT1 for 12, 24, or 48 hours, and promising results were obtained.
(§3) In addition, the Aβ1‐42 peptides were diluted in water and preaggregated at 37 °C for 7 days before use. The cellular AD model was successfully constructed in vitro by incubating PC12 cells with 100 μM aggregated Aβ for 24 hours. DMSO (50 μL) and 0.5 mg/mL MTT (10 μL) stock solution were added to each well for 4 hours of incubation. After 30 minutes, the plates were shaken, and the optical density was measured at 570 nm using an ELISA reader (Biotech). The MTT assay used by Pirali et al.,[23] which underwent slight modifications, yielded promising results.

[4] = MTT assay, Aβ1‐42‐induced toxicity in PC12 cells; type: cell-based, Rattus norvegicus; settings: rat; PC12 cells, CHT1 20 μM, after 48 h, MTT; read-out: Viability percentage of that of the control
Protocol: as §2, §3

[5] = PC12 cells, Aβ1‐42 100 μM alone
[6] = Western blotting, CHT1 5 and 8 μM

Chain of BChE (P06276 29-602, species assumed): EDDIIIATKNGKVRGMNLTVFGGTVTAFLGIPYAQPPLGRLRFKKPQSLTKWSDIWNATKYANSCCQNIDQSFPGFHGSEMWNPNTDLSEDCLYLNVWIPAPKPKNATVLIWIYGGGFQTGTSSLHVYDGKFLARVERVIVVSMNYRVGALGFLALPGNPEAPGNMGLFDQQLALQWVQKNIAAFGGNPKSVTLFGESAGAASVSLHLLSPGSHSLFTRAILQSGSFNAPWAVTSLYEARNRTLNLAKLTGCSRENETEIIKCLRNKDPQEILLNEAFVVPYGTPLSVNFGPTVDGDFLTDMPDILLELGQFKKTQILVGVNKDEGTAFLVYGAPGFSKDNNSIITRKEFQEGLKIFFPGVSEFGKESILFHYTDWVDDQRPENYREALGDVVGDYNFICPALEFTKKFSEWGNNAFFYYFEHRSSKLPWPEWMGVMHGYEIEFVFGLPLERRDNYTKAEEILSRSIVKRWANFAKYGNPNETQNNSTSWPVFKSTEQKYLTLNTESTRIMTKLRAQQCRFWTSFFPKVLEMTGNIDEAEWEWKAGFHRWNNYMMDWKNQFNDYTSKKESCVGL

Compound: O=C1N=C(O)SC1=Cc1ccc(Cl)cc1 [CHT2, 5‐(4‐Chlorobenzylidene)thiazolidine‐2,4‐dione]
- IC50 (BChE): 125 nM

Compound: amyloid beta 1–42 [Aβ1‐42, reference compound]
- p‐Tau/Tau ratio greater than in the control group (p‐Tau/Tau; [5]): 4.96 fold
- HSP70 level greater than in the control group (HSP70; [5]): 3.35 fold

Compound: O=C1NC(=O)C(=Cc2cccc(O)c2)S1 [CHT3, 5‐(3‐Hydroxybenzylidene)thiazolidine‐2,4‐dione]
- IC50 (BChE): 81.9 nM
- Antioxidant capacity (FRAP) [1]: 0.41 mmol Fe^2+/g

Compound: COc1cc2c(cc1OC)C(=O)C(CC1CCN(Cc3ccccc3)CC1)C2 (centres unmarked) [Donepezil, donepezil, reference compound]
- Decrease of HSP70 expression compared with the Aβ group (HSP70; PC12 cells, donepezil 75 μM (positive control)): 1.92 fold

Compound: COc1ccc(C=C2SC(O)=NC2=O)cc1 [CHT1, 5‐(4‐Methoxybenzylidene)thiazolidine‐2,4‐dione]
- Decrease of p‐Tau/Tau compared with the Aβ group (p‐Tau/Tau; PC12 cells, 5 μM): 2.26 fold
- Decrease of p‐Tau/Tau compared with the Aβ group (p‐Tau/Tau; PC12 cells, 8 μM): 2.01 fold
- p‐Tau expression level (p‐Tau/Tau; [6]): downregulated
- Density of PC12 cells compared with Aβ (100 μM) (PC12 cells [2]): increased the density of PC12 cells
- Acute toxicity in PC12 cells (PC12 cells [3]): acute toxicity was not observed
- Effect of pretreatment on Aβ1‐42‐induced cell death (PC12 cells [3]; PC12 cells, Aβ1‐42 100 μM): significant reduction in Aβ1‐42‐induced cell death in a dose‐dependent manner
- viability at 48 h, 20 μM [4]: 66.5%
- Decrease of HSP70 expression compared with the Aβ group (HSP70; PC12 cells, 5 μM): 2.1 fold
- Decrease of HSP70 expression compared with the Aβ group (HSP70; PC12 cells, 8 μM): 2.26 fold
- HSP70 expression level (HSP70; [6]): downregulated
- IC50 (BChE): 69.1 nM
- Antioxidant capacity (FRAP) [1]: 0.78 mmol Fe^2+/g

Compound: O=C1NC(=O)C(=Cc2cccc3ccccc23)S1 [CHT5, 5‐((Naphthalene‐1‐yl)methylene)thiazolidine‐2,4‐dione]
- IC50 (BChE): 141 nM
- Antioxidant capacity (FRAP) [1]: 0.26 mmol Fe^2+/g

Compound: O=C1NC(=O)C(=Cc2ccccc2O)S1 [CHT4, 5‐(2‐Hydroxybenzylidene)thiazolidine‐2,4‐dione]
- IC50 (BChE): 102 nM
- Antioxidant capacity (FRAP) [1]: 0.45 mmol Fe^2+/g

Compound: O=C1O[C@H]([C@@H](O)CO)C(O)=C1O [ascorbic acid, reference compound]
- Antioxidant capacity (FRAP) [1]: 1.15 mmol Fe^2+/g
